Drawing on article PMC12738789, “Synthesis of an enhanced nanobiocatalyst system from Aspergillus niger as single green source” (Scientific Reports, 2025), this text covers Km for one compound.

The subject of the experiment is T1, Aspergillus niger ATCC 16,878 lipase.
T1 construct: gene lipA
Kind of experiment: spectrophotometric p-nitrophenol release at […] nm, nonlinear Michaelis-Menten fit. Format: biochemical. The following applies: free enzyme; 0.1-1 mM pNPP; standard assay 0.1 M potassium phosphate pH 7.5, 37 °C, 2% Triton X-100.

Consider `CCCCCCCCCCCCCCCC(=O)Oc1ccc([N+](=O)[O-])cc1` [4-nitrophenyl palmitate], for which the Michaelis-Menten constant (Km) (as a rule, the concentration of substrate that gives half-maximal velocity) came to 147 µM.
